The values below are quoted from earlier work in PMC13472183 (Journal of drug delivery science and technology, 2022).

The conditions of the data set: previous reported value, without the EDA modification.

On to NH2-(VPGFG)6G-(GPO)7GG-CONH2 [F6-GPO7], for which the “Tm (triple helix melting temperature)” value was 50 °C.
